US5863950A, “HIV protease inhibitors” (Agouron Pharmaceuticals, Inc., priority 1994, dated 1999)
Where “and” joins values, the source holds several entries; their conditions need not be identical. Identical values can stand only once.

Target: T1, HIV-1 protease (Human immunodeficiency virus type 1 group M subtype B, UniProt P04585)
T1 construct: purified HIV-1 protease
Test: biochemical
Assay type: biochemical
Conditions: for IC50 / Ki: 0.5M NaCl, 50 mM MES pH 5.6, 2% DMSO, 37° C., 200 μM substrate
Description: 1. Proteolytic activity of purified HIV-1 protease was routinely measured using the chromogenic assay developed by Richards et al. (J. Biol. Chem. 265: 7733 (1990)). Synthetic peptide His-Lys-Ala-Arg-Val-Leu-Phe (pNO2)-Glu-Ala-Nle-Ser-NH2 (American Peptide Company) was used as the substrate.
2. The assay was carried out in 0.5M NaCl, 50 mM MES pH 5.6, 2% DMSO (dimethylsulfoxide) at 37° C. Cleavage of the scissile bond between leucine and paranitro-phenylalanine (Phe(pNO2)) was assayed by spectrophotometric monitoring of the decrease in absorbance at 305 nm. Initial velocity was determined as the rate of decline of absorbance during the first 100 seconds of reaction.
3. […] Between 15-25 concentrations of inhibitor were added and velocity of reaction was measured at each of the concentrations, as described above.
4. Inhibition constants were calculated using the method of Jackson et al. (Adv. in Enzyme Regulation 22: 187 (1984)).

Row | Compound | IC50 [µM] | other results
1 | CC(C)(C)NC(=O)c1ccccc1NCC(O)Cc1ccc2ccccc2c1C(=O)NC(C)(C)C (centres unmarked) [Example 51] | 120 | –
2 | CC(C)(C)N(CCO)C(=O)c1ccccc1CCC(O)Cc1ccccc1C(=O)N(CCOCc1ccccc1)C(C)(C)c1ccncc1 (centres unmarked) [Example 76] | 1.74 | Ki: 0.92 µM
3 | CC(C)(C)NC(=O)c1ccccc1CC(O)CSc1ccccc1C(=O)N1CCOCC1 (centres unmarked) [Example 42] | 150 to 200 | –
4 | CC(C)(C)NC(=O)c1ccccc1SCC(O)CN1CCCCC1C(=O)NC(C)(C)C (centres unmarked) [Example 22] | 60 | –
5 | CC(C)(C)NC(=O)c1ccccc1CCC(O)Cc1ccccc1C(=O)N(Cc1ccccc1)C(C)(C)C (centres unmarked) [Example 13] | – | percent (inhibition) (at 10 (μM)): 40%
6 | CC(C)(C)NC(=O)c1ccccc1/C=C/C(O)Cc1ccccc1C(=O)NC(C)(C)C (centres unmarked) [Example 28] | – | percent (inhibition) (at 200 (μM)): 40%
7 | CC(C)(C)NC(=O)c1cc2ccccc2cc1CCC(O)Cc1ccc2ccccc2c1C(=O)NC(C)(C)C (centres unmarked) [Example 9] | – | percent (inhibition) (at 20 (μM)): 40%
8 | CC(C)(C)NC(=O)c1ccccc1CC(O)CSc1ccccc1C(=O)NC(C)(C)C (centres unmarked) [Example 23] | 75 to 100 | –
9 | CC(C)(C)NC(=O)c1cc(C(C)(C)C)ccc1CCC(O)Cc1ccc(C(C)(C)C)cc1C(=O)NC(C)(C)C (centres unmarked) [Example 10] | 15 | –
10 | CC(C)N1CCC(CC(O)CCc2ccc3ccccc3c2C(=O)NC(C)(C)C)=C(C(=O)NC(C)(C)C)C1 (centres unmarked) [Example 48] | 70 | –
11 | CCNC(=O)c1ccccc1CC(O)CSc1ccccc1C(=O)NCCN(C)C (centres unmarked) [Example 38] | > 500 | –
12 | CC(C)(C)NC(=O)c1c(CCC(O)Cc2ccc3ccccc3c2C(=O)N(CCO)C(C)(C)C)ccc2ccccc12 (centres unmarked) [Example 14] | 5.6 | Ki: 5.4 µM
13 | CN(C(=O)c1c(CC(O)CCc2ccc3ccccc3c2C(=O)NC(C)(C)C)ccc2c1CNCC2)C(C)(C)C (centres unmarked) [Example 59] | – | percent (inhibition) (at 100 (μM)): 20%
14 | Cc1ccc(CC(O)CCc2ccccc2C(=O)N(Cc2ccccc2)C(C)C)c(C(=O)N(CCO)C(C)(C)c2ccccc2)c1 (centres unmarked) [Example 86] | 0.448 | Ki: 0.379 µM
15 | CC(C)(C)NC(=O)c1ccccc1SCC(O)c1ccccc1C(=O)NC(C)(C)C (centres unmarked) [Example 17] | > 200 | –
16 | CC(C)(C)NC(=O)c1ccccc1C#CC(O)Cc1ccccc1C(=O)NC(C)(C)C (centres unmarked) [Example 26] | > 200 | –
17 | CC(C)(C)N(CCO)C(=O)c1ccccc1CCC(O)Cc1ccccc1C(=O)N(c1ccccc1)C(C)(C)C (centres unmarked) [Example 68] | 11.9 | Ki: 5.8 µM
18 | CC(C)(C)NC(=O)c1cc(C(C)(C)C)ccc1CC[C@@H](O)Cc1ccc2ccccc2c1C(=O)NC(C)(C)C [Example 8] | ~20 | –
19 | COC(CSc1ccccc1C(=O)NC(C)(C)C)Cc1ccccc1C(=O)NC(C)(C)C (centres unmarked) [Example 41] | > 500 | –
20 | Cc1cc(CC(O)CCc2ccccc2C(=O)N(CCO)C(C)(C)C)c(C(=O)N(CCO)C(C)(C)c2ccccc2)cc1C (centres unmarked) [Example 90] | 0.2 | Ki: 0.176 µM
21 | CCc1ccc(CC(O)CCc2ccccc2C(=O)N(CCOCc2ccccc2)C(C)(C)c2ccccc2)c(C(=O)N(CCO)C(C)(C)c2ccccc2)c1 (centres unmarked) [Example 88] | 0.23 | Ki: 0.075 µM
22 | CC(C)(C)N(CCO)C(=O)c1ccccc1CC(O)CSc1ccccc1C(=O)N(CCO)C(C)(C)C (centres unmarked) [Example 85] | 36 | Ki: 18.4 µM
23 | CC(C)(C)NC(=O)c1cc(C(C)(C)C)ccc1CCC(O)Cc1ccc2ccccc2c1C(=O)NC(C)(C)C (centres unmarked) [Example 7] | 1.02 | Ki: 1.01 µM
24 | CN(C(=O)c1ccccc1CCC(O)Cc1ccccc1C(=O)N(C)C(C)(C)C)C(C)(C)C (centres unmarked) [Example 55] | 6.3 | –
25 | CC(C)(C)NC(=O)[C@@H]1C[C@@H]2CCCC[C@@H]2CN1CC(O)CCc1ccccc1C(=O)N(CCO)C(C)(C)C (single isomer, unassigned) [Example 29] | 55 | –

Row | Compound | IC50 [µM] | other results
26 | CC(=O)N1CCc2ccc(CC(O)CCc3ccc4ccccc4c3C(=O)NC(C)(C)C)c(C(=O)N(C)C(C)(C)C)c2C1 (centres unmarked) [Example 63] | – | percent (inhibition) (at 200 (μM)): 40%
27 | CC(C)(C)N(CCO)C(=O)c1ccccc1CCC(O)C(F)(F)c1ccccc1C(=O)N(CCO)C(C)(C)c1ccccc1 (centres unmarked) [Example 79] | 3.5 | Ki: 3.2 µM
28 | CC(C)(C)NC(=O)c1ccccc1CCC(O)C(O)CCc1ccccc1C(=O)NC(C)(C)C (centres unmarked) [Example 57] | – | percent (inhibition) (at 200 (μM)): 93%
29 | CC(C)(C)NC(=O)c1ccccc1CC(O)CSc1ccc(NC(=O)c2ccncc2)cc1C(=O)NC(C)(C)C (centres unmarked) [Example 45] | 60 | –
30 | CC(C)(C)NC(=O)c1ccccc1SCC(O)Cc1ccccc1C(=O)N(CCO)C(C)(C)C (centres unmarked) [Example 36] | 25 | –
31 | CC(C)(C)NC(=O)c1ccccc1CC(O)CSc1ccc(NCc2ccncc2)cc1C(=O)NC(C)(C)C (centres unmarked) [Example 46] | 200 | –
32 | CC(C)(C)NC(=O)c1ccccc1NCC(O)Cc1ccc2ccccc2c1C(=O)NC(C)(C)C (centres unmarked) [Example 50] | 120 | –
33 | CC(C)(C)NC(=O)c1cnccc1CC(O)CCc1ccc2ccccc2c1C(=O)NC(C)(C)C (centres unmarked) [Example 11] | 18 | –
34 | CC(C)(C)NC(=O)c1ccccc1CCC(O)CN1CCCCC1C(=O)NC(C)(C)C (centres unmarked) [Example 31] | – | percent (inhibition) (at 100 (μM)): 20% and 35%
35 | CC(C)(C)NC(=O)[C@@H]1C[C@@H]2CCCC[C@@H]2CN1CC(O)CCc1ccccc1C(=O)N(CCO)C(C)(C)C (single isomer, unassigned) [Example 30] | 38 | –
36 | CC(C)(C)N(CCO)C(=O)c1ccccc1CCC(O)Cc1ccccc1C(=O)N(CCO)C(C)(C)Cc1ccccc1 (centres unmarked) [Example 61] | 1.33 | Ki: 1.27 µM
37 | CC(C)(C)NC(=O)c1ccccc1C(O)CSc1ccccc1NC(=O)C(C)(C)C (centres unmarked) [Example 21] | – | percent (inhibition) (at 200 (μM)): 10%
38 | His-Lys-Ala-Arg-Val-Leu-Phe (pNO2)-Glu-Ala-Nle-Ser-NH2 [reference compound] | – | Km (substrate, standard conditions, read-out: Michaelis constant (Km)): 52 ± 16 µM
39 | CC(C)(C)NC(=O)c1ccccc1CC(O)CSc1ccc2ccccc2c1C(=O)NC(C)(C)C (centres unmarked) [Example 47] | 50 | –
40 | CC(C)(C)NC(=O)c1ccccc1/C=C\C(O)Cc1ccccc1C(=O)NC(C)(C)C (centres unmarked) [Example 27] | – | percent (inhibition) (at 200 (μM)): 40%
41 | CC(C)(C)NC(=O)c1c(CC(O)CCc2ccccc2C(=O)N(CCO)C(C)(C)C)ccc2ccccc12 (centres unmarked) [Example 3] | 2.38 | Ki: 1.31 µM
42 | CC(C)(C)NC(=O)c1ccccc1CC(O)CSc1ccc(N)cc1C(=O)NC(C)(C)C (centres unmarked) [Example 44] | – | percent (inhibition) (at 200 (μM)): 20%
43 | CC(C)(C)NC(=O)c1c(CCC(O)Cc2ccccc2C(=O)N(Cc2nc3ccccc3[nH]2)C(C)(C)C)ccc2ccccc12 (centres unmarked) [Example 67] | – | percent (inhibition) (at 10 (μM)): 40%
44 | CN(C)CCNC(=O)c1ccccc1CC(O)CSc1ccccc1C(=O)NCCN(C)C (centres unmarked) [Example 37] | > 500 | –
45 | CN(C)CCNC(=O)c1ccccc1SCC(O)Cc1ccccc1C(=O)NC(C)(C)C (centres unmarked) [Example 39] | > 500 | –
46 | CC(C)(C)NC(=O)c1ccccc1CC(O)CSc1ccc([N+](=O)[O-])cc1C(=O)NC(C)(C)C (centres unmarked) [Example 43] | – | percent (inhibition) (at 200 (μM)): 20%
47 | CC(C)(C)N(CCCO)C(=O)c1ccccc1CCC(O)Cc1ccccc1C(=O)N(CCOCCN1CCOCC1)C(C)(C)c1ccccc1 (centres unmarked) [Example 75] | 8 | –
48 | CN(C)CC(C)(C)CNC(=O)c1ccccc1SCC(O)Cc1ccccc1C(=O)NC(C)(C)C (centres unmarked) [Example 40] | > 500 | –
49 | CC(C)(C)N(CCO)C(=O)c1c(CCC(O)Cc2ccc3ccccc3c2C(=O)N(CCO)C(C)(C)C)ccc2ccccc12 (centres unmarked) [Example 6] | 30 | –
50 | CC(C)(C)NC(=O)c1cc(C(C)(C)C)ccc1CCC(O)Cc1ccccc1C(=O)N(CCO)C(C)(C)C (centres unmarked) [Example 35] | 1.19 | Ki: 0.84 µM
